What was measured:
[1] = system: 3T3-L1 adipocytes; assay: 2-deoxy-glucose uptake in differentiated mature 3T3-L1 adipocytes; type: cell-based, rodent
Experimental: (§1) 3T3-L1 preadipocytes were cultured in Dulbecco's minimal essential medium (DMEM) supplemented with 100 IU/mL penicillin, 100 µg/mL streptomycin, 1% nonessential amino acid and 10% calf serum in 5% CO2 and 95% Air at 37° C. Once the cells have become fully grown, differentiation was induced by treating the cells with differentiation inducers (DMEM containing 0.5 mM 3-isobutyl-1-methylxanthane (IBMX), 1 µM dexamethasone, […], and 10% fetal bovine serum) for two days. The cells were re-fed with DMEM supplemented with 10 µg/mL insulin and 10% FBS for another two days, and then changed to 10% FBS/DMEM without insulin every 2 days for 4-6 days. At this stage, near 90% of the cells expressed the adipocyte phenotype and were ready for the experiments. Before commencing the experiments, the 3T3-L1 cells were rinsed with PBS solution first, and then cultured overnight in the serum-free and insulin-free 0.2% BSA/DMEM culture medium, so as to remove interferences from both serum and insulin.
For the experiment of testing the effects of triterpene compounds on enhancing glucose uptake by 3T3-L1 adipocytes, 3T3-L1 preadipocytes were cultured on 6-well culture dishes, and allowed to grow fully therein before being subjected to differentiation by a differentiation-inducing agent. Once the 3T3-L1 cells became matured and differentiated into adipocytes after 7-12 days, the cells were used for testing glucose uptake. Said adipocytes were firstly placed in a serum-free culture medium (0.2% BSA/DMEM) overnight, followed by cultivation for 2-6 hours in serum-free cell culture media containing different concentrations of triterpene compounds, and then rinsed once with PBS solution before undergoing cultivation in KRP buffer (20 mM HEPES, 137 mM NaCl, 4.7 mM KCl, 1.2 mM MgSO4, 1.2 mM KH2PO4, 2.5 mM CaCl2, and 2 mM pyruvate, pH 7.4 and 0.2% BSA) at 37° C. for 3 hours. Finally, 0.2 μCi/mL of 2-deoxy-D-[^14C]-glucose (2-DG, Amersham Biosciences, Little Chalfont, Bucks, U.K) and 0.2 ml of non-radioactive glucose buffer derived from 0.1 mM 2-DG were used as a substitute for KRP buffer in order to begin the experiment on glucose uptake. After allowing the experiment to run for […], the cells were removed and rinsed with PBS solution to terminate the intake of glucose. Subsequently, the cells were dissolved in 0.2 ml of 0.2% SDS, and 10 μL, of the solution with dissolved cells was transferred into UniFilter plates (Perkim-Elmer, Wellesley, Mass., USA) with filtering bases and dried in a vacuum oven at 37° C., in which each well was added with 30 μL of counting solution, and then analyzed by using a micro-disk liquid scintillation analyzer (TopCount, Packard NXT, Packard BioScience Company, Meriden, Conn., USA). The glucose concentration accumulated in the cells was calculated, and divided by the protein concentration, so as to obtain a glucose uptake rate indicated as nanomoles of glucose uptake in every microgram of cell proteins at every minute (nmol/min/mg). The protein concentration was determined by using the standard Bicinchoninic acid (BCA) protein assay kit (Pierce, Rockford, Ill., USA). The uptake of non-specific glucose was determined by adding 0.2 μCi of L-[14C]-glucose, and then used to substract from the value obtained by the analyzer so as to get a value for the uptake of specific glucose. Therefore, the effects of different concentrations of triterpene compounds on the glucose uptake by 3T3-L1 adipocytes could be determined.

[2] = system: 3T3-L1 preadipocytes; assay: 2-deoxy-glucose uptake in 3T3-L1 preadipocytes; type: cell-based, rodent
Experimental: as §1, with “Before commencing the experiments, the 3T3-L1 cells were rinsed with PBS solution first, and then cultured overnight in the serum-free and insulin-free 0.2% BSA/DMEM culture medium, so as to remove interferences from both serum and insulin.” left out
For the experiment of testing the effects of triterpene compounds on enhancing glucose uptake by 3T3-L1 adipocytes, 3T3-L1 preadipocytes were cultured on 6-well culture dishes, and allowed to grow fully therein before being subjected to differentiation by a differentiation-inducing agent. […] The glucose concentration accumulated in the cells was calculated, and divided by the protein concentration, so as to obtain a glucose uptake rate indicated as nanomoles of glucose uptake in every microgram of cell proteins at every minute (nmol/min/mg). […]

[3] = system: GLUT4; assay: GLUT4 protein expression by Western blot in 3T3-L1 adipocytes; type: cell-based, rodent; conditions: different doses of PA for 24 hours
Experimental: For the experiment of testing the effects of triterpene compounds on enhancing the GLUT protein expression in 3T3-L1 adipocytes, the aforesaid differentiated and mature 3T3-L1 adipocytes were cultured overnight in a serum-free cell culture medium, and then further cultured in serum-free cell culture media containing different concentrations of triterpene compounds for 24 hours. This was followed by rinsing the cells with PBS solution, and allowing the cells to lyse in 0.2 mL lysis buffer (1% NP-40, 150 mM NaCl, 0.1% SDS, 50 mM Tris-HCl pH 7.6, 10 mM EDTA, 0.5% deoxycholate, 1 mM PMSF, 1 mM Na3VO4, 10 mM NaF, 10 mM β-glycerophosphate, 10 g/mL protease inhibitor and phosphotase inhibitor cocktails) for 30 min at 4° C. An equal amount of protein from each sample was separated by sodium dodecyl sulfate (SDS)-10% polyacrylamide gel electrophoresis (PAGE) and transblotted onto polyvinylidene difluoride (PVDF) membranes (Millipore, Bedford, Mass., USA). […] Each sample of proteins was treated with a chemiluminescence kit (ECL, Amersham, U.K.) before being exposed and processed into X-ray film, and then quantitatively analyzed by using computer software.

[4] = system: 3T3-L1 adipocytes with suppressed GLUT4 expression (shG4-30); assay: glucose uptake in adipocytes with suppressed mRNA expression of GLUT4 (shG4-30); type: cell-based, rodent; conditions: different doses of PA
From the text: A viral carrier (TRCN0000043630 shRNA, Genomics Research Center, Academia Sinica, R.O.C.) carrying GLUT4-inhibiting RNA was used to infect the 3T3-L1 preadipocytes (shG4-30), in order to create a gene expression having consistent inhibition of GLUT4 expression, and the cell strain was allowed to further differentiate, from which the differentiated adipocytes were used for the experiments.
For the experiment of testing the effects of triterpene compounds on enhancing glucose uptake by 3T3-L1 adipocytes, 3T3-L1 preadipocytes were cultured on 6-well culture dishes, and allowed to grow fully therein before being subjected to differentiation by a differentiation-inducing agent. […] Subsequently, the cells were dissolved in 0.2 ml of 0.2% SDS, and 10 μL, of the solution with dissolved cells was transferred into UniFilter plates (Perkim-Elmer, Wellesley, Mass., USA) with filtering bases and dried in a vacuum oven at 37° C., in which each well was added with 30 μL of counting solution, and then analyzed by using a micro-disk liquid scintillation analyzer (TopCount, Packard NXT, Packard BioScience Company, Meriden, Conn., USA). The glucose concentration accumulated in the cells was calculated, and divided by the protein concentration, so as to obtain a glucose uptake rate indicated as nanomoles of glucose uptake in every microgram of cell proteins at every minute (nmol/min/mg). […]

[5] = system: HA-GLUT4-GFP; assay: GLUT4 translocation to plasma membrane, HA-GLUT4-GFP fluorescence ratio; type: cell-based, rodent; conditions: 1.0 μM of PA, 2 hours; rhodamine/GFP fluorescence ratio
[6] = system: GLUT4; assay: GLUT4 translocation to plasma membrane, centrifugation fractions and Western blot; type: cell-based, rodent; conditions: 2 hours
Experimental: In the mechanism of insulin enhancing glucose uptake by adipocytes or muscle cells, the translocation of GLUT4 from intracellular organelles to plasma membrane (PM) actually plays a vital rol therein, thus the effects of triterpene compounds on enhancing the translocation of GLUT4 to plasma membrane in 3T3-L1 adipocytes were tested here. The differentiated and mature 3T3-L1 adipocytes were cultured overnight in a serum-free cell culture medium, and then further cultured in serum-free cell culture media containing different concentrations of triterpene compounds for 2 hours. This was followed by high-speed centrifugation at different rotation speeds (16,000 g-200,000 g) in order to separate the cellular plasma membrane fraction from the low density microsome (LDM) [Liu, L. Z. et. al.; Mol. Biol. Cell 17, (5), 2322-2330, 2006]. Western blot analysis was performed by using a monoclonal antibody for GLUT4, so as to observe whether there are any effects from different concentrations of triterpene compounds on the translocation of GLUT4 from cellular LDM to PM in 3T3-L1 adipocytes.

[7] = system: 3T3-L1 adipocytes; assay: accumulation of triglycerides in 3T3-L1 adipocytes (Oil-Red O staining); type: cell-based, rodent; conditions: 24 hours after administering different doses of PA
Experimental: (§2) For the experiment of testing the effects of triterpene compounds on the accumulation of triglycerides and the release of glycerol in 3T3-L1 adipocytes, the differentiated and mature 3T3-L1 adipocytes were cultivated overnight in a serum-free cell culture medium, and then further cultivated in serum-free cell culture media containing different concentrations of triterpene compounds for 24 hours. The culture media were collected and tested for the release of glycerol by using a glycerol assay kit (Randox Laboratories, Antrim, UK), to determine whether different concentrations of triterpene compounds had any effects on the release of glycerol from lipid breakdown in 3T3-L1 adipocytes. The level of triglycerides in the adipocytes were determined by Oil-Red O staining (Ramirez-Zacarias, J. L. et. al.; Histochemistry 97, (6), 493-497, 1992). The oil droplets formed by the accumulation of lipids in the cells were stained, rinsed twice with 60% isopropanol, and then extracted in 100% isopropanol before being quantified at the absorbance of 490 nm. The readings were compared with that from the adipocytes without being given triterpene compounds, in order to evaluate the effects of different concentrations of triterpene compounds on the accumulation of triglycerides in the adipocytes.

[8] = system: GLUT4; assay: GLUT4 mRNA expression by real-time Q-PCR in 3T3-L1 adipocytes; type: cell-based, rodent; conditions: 1 μM of PA, 24 hours
Experimental: Real-time Q-PCR was performed in order to evaluate mRNA expression of GLUT proteins in 3T3-L1 adipocytes under different concentrations of triterpene compounds. Firstly, the fully differentiated 3T3-L1 adipocytes were mixed with different concentrations of triterpene compounds and left for 24 hours, before removing the cell culture medium and using the Trizol buffer (Invitrogen, Irvine, Calif., USA) to obtain total RNA from the cells. Afterwards, 1 μg of RNA sample was taken therefrom, and a High-Capacity cDNA Reverse Transcription Kit (Applied Biosystems, Darmstadt, Germany) was used to reverse transcribe mRNA in the sample into cDNA. Primers were specifically designed for GLUT1, GLUT4, and β-actin, and the SYBR Green Q-PCR analyzer (Applied Biosystems, Foster City, Calif., USA) was used to expand the gene for detection (Glut1 & 4) and reference gene (β-actin), before relative gene expression values were calculated by the ΔΔCT method using the StepOne v2.0 software (Applied Biosystems).

[9] = system: 3T3-L1 adipocytes; assay: release of glycerol from 3T3-L1 adipocytes (glycerol assay kit); type: cell-based, rodent; conditions: 24 hours after administering different doses of PA
Experimental: as §2

[10] = system: in vitro adipocytes; conditions: cited from earlier work
[11] = system: mice; conditions: cited from earlier work
[12] = 0.01 μM, two hours after giving the compound, versus untreated control

O=C(CCc1ccc(O)cc1)c1c(O)cc(O)cc1O [phloretin (PT), phloretin, reference compound]
glucose uptake after phloretin (FIG. 4) ([1]; adipocytes): significantly inhibited
glucose uptake after phloretin (FIG. 4) [2]: significantly inhibited

C=C(CC[C@@H](C(=O)O)[C@H]1[C@H](O)C[C@@]2(C)C3=C(CC[C@]12C)[C@@]1(C)CC[C@H](O)C(C)(C)[C@@H]1CC3)C(C)C [TA, tumulosic acid]
glucose uptake increased to [1, 12]: 142.5%

C=C(CC[C@@H](C(=O)O)[C@H]1[C@H](O)C[C@@]2(C)C3=C(CC[C@]12C)[C@@]1(C)CC[C@H](OC(C)=O)C(C)(C)[C@@H]1CC3)C(C)C [PA, pachymic acid]
protein expression of GLUT4 (FIG. 5) [3]: effective for enhancing the protein expression of GLUT4
glucose uptake in adipocytes with low expression of GLUT4 (FIG. 7B) [4]: did not greatly enhance the glucose uptake
translocation of GLUT4 to plasma membrane elevated (FIG. 8B) [5]: 2.71 fold
glucose uptake increased to [1, 12]: 165.89%
glucose uptake increased to ([1]; PA at 1 μM, acting two hours): 209.84%
enhancement of glucose uptake (FIG. 4) ([1]; differentiated adipocytes): only effective for enhancing glucose uptake in differentiated adipocytes
enhancement of glucose uptake (FIG. 4) [2]: not for preadipocytes
amount of GLUT4 in the plasma membrane increased to (FIG. 8A) ([6]; 0.01 μM of PA): 141%
amount of GLUT4 in the plasma membrane increased to (FIG. 8A) ([6]; 1 μM of PA): 328%
accumulation of triglycerides (FIG. 9) [7]: exceeded 137%
gene expression of GLUT4 elevated to (FIG. 6) [8]: 228%
release of glycerol lowered to [9]: approximately 70 % of the original level

C=C(CC[C@@H](C(=O)O)[C@H]1[C@H](O)C[C@@]2(C)C3=CC[C@H]4C(C)(C)C(=O)CC[C@]4(C)C3=CC[C@]12C)C(C)C [PPA, polyporenic acid C]
glucose uptake increased to [1, 12]: 147.9%

CC(C)=CCC[C@@H](C(=O)O)[C@H]1CC[C@@]2(C)C3=CC[C@H]4C(C)(C)[C@@H](O)CC[C@]4(C)C3=CC[C@]12C [dehydrotrametenolic acid]
effective concentration [10]: 10^−5 M
effective dose ([11]; mice): 110 mg/kg
effective dose for use in the human body ([11]; researchers' conclusion from the mouse dose): more than 700 mg

insulin [reference compound]
effect on glucose uptake ([1]; 100 nM insulin): effective for increasing glucose uptake
